Laboratory results as given in article PMC4490784, “Compensatory induction of MYC expression by sustained CDK9 inhibition via a BRD4-dependent mechanism” (eLife, 2015).

Assays:
Assay in all cases: KINOMEscan binding assay
PAK1 = molecular target: T1, PAK1 (Homo sapiens, UniProt Q13153); conditions: read-out: % Retention on Solid Support
T1 construct: purchased DiscoveRx KINOMEscan
Procedure, shortened: (§1)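 Binding, not catalytic activity, is measured: the compound competes with an active-site-directed ligand. Screening concentrations were 1 and 10 µM, applied across more than 400 kinases.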

EGFR(L747-T751del,Sins) = test system: EGFR(L747-T751del,Sins)
Procedure, shortened: as §1

PIK3CA(H1047Y) = molecular target: T2, PIK3CA(H1047Y) (Homo sapiens, UniProt P42336, H1047Y); conditions: read-out: % Retention on Solid Support
T2 construct: purchased DiscoveRx KINOMEscan
Procedure, shortened: as §1

AMPK-alpha2 = molecular target: T3, AMPK-alpha2 (Homo sapiens, UniProt P54646); conditions: read-out: % Retention on Solid Support
T3 construct: purchased DiscoveRx KINOMEscan
Procedure, shortened: as §1

MAP3K4 = molecular target: T4, MAP3K4 (Homo sapiens, UniProt Q9Y6R4); conditions: read-out: % Retention on Solid Support
T4 construct: purchased DiscoveRx KINOMEscan
Procedure, shortened: as §1

DYRK1A = DYRK1A (Homo sapiens, UniProt Q13627); conditions: read-out: % Retention on Solid Support
Procedure, shortened: as §1

SRPK1 = molecular target: T5, SRPK1 (Homo sapiens, UniProt Q96SB4); conditions: read-out: % Retention on Solid Support
T5 construct: purchased DiscoveRx KINOMEscan
Procedure, shortened: as §1

IRAK4 = IRAK4 (Homo sapiens, UniProt Q9NWZ3); conditions: 1 µM i-CDK9
Procedure, shortened: as §1

ERK1 = molecular target: T6, ERK1 (Homo sapiens, UniProt P27361); conditions: read-out: % Retention on Solid Support
T6 construct: purchased DiscoveRx KINOMEscan
Procedure, shortened: as §1

AMPK-alpha1 = molecular target: T7, AMPK-alpha1 (Homo sapiens, UniProt Q13131); conditions: read-out: % Retention on Solid Support
T7 construct: purchased DiscoveRx KINOMEscan
Procedure, shortened: as §1

TLK2 = molecular target: T8, TLK2 (Homo sapiens, UniProt Q86UE8); conditions: read-out: % Retention on Solid Support
T8 construct: purchased DiscoveRx KINOMEscan
Procedure, shortened: as §1

VRK2 = molecular target: T9, VRK2 (Homo sapiens, UniProt Q86Y07); conditions: 1 µM i-CDK9; read-out: % Retention on Solid Support
T9 construct: purchased DiscoveRx KINOMEscan
Procedure, shortened: as §1

CAMK1D = molecular target: T10, CAMK1D (Homo sapiens, UniProt Q8IU85); conditions: read-out: % Retention on Solid Support
T10 construct: purchased DiscoveRx KINOMEscan
Procedure, shortened: as §1

AURKA = molecular target: T11, AURKA (Homo sapiens, UniProt O14965); conditions: read-out: % Retention on Solid Support
T11 construct: purchased DiscoveRx KINOMEscan
T11 sequence (O14965 1-403): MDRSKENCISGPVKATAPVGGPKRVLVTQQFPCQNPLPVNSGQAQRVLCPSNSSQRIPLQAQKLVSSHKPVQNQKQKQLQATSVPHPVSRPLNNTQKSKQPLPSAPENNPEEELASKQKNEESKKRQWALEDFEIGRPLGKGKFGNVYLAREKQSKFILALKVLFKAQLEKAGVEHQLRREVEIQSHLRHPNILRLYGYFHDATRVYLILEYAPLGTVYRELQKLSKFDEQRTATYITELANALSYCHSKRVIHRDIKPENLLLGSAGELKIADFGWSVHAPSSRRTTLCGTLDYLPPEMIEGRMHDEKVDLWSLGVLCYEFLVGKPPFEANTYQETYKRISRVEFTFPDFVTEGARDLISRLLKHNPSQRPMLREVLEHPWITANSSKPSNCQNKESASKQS
Procedure, shortened: as §1

TAK1 = molecular target: T12, TAK1 (Homo sapiens, UniProt O43318); conditions: read-out: % Retention on Solid Support
T12 construct: purchased DiscoveRx KINOMEscan
Procedure, shortened: as §1

TGFBR2 = molecular target: T13, TGFBR2 (Homo sapiens, UniProt P37173); conditions: read-out: % Retention on Solid Support
T13 construct: purchased DiscoveRx KINOMEscan
Procedure, shortened: as §1

SLK = molecular target: T14, SLK (Homo sapiens, UniProt Q9H2G2); conditions: read-out: % Retention on Solid Support
T14 construct: purchased DiscoveRx KINOMEscan
Procedure, shortened: as §1

PIK3CA(E542K) = molecular target: T15, PIK3CA(E542K) (Homo sapiens, UniProt P42336, E542K); conditions: read-out: % Retention on Solid Support
T15 construct: purchased DiscoveRx KINOMEscan
Procedure, shortened: as §1

YANK1 = molecular target: T16, YANK1 (Homo sapiens, UniProt Q8WU08); conditions: 1 µM i-CDK9; read-out: % Retention on Solid Support
T16 construct: purchased DiscoveRx KINOMEscan
Procedure, shortened: as §1

GSK3A = molecular target: T17, GSK3A (Homo sapiens, UniProt P49840); conditions: read-out: % Retention on Solid Support
T17 construct: purchased DiscoveRx KINOMEscan
Procedure, shortened: as §1

FLT3 = molecular target: T18, FLT3 (Homo sapiens, UniProt P36888); conditions: read-out: % Retention on Solid Support
T18 construct: purchased DiscoveRx KINOMEscan
Procedure, shortened: as §1

[1] = molecular target: T19, ABL1(M351T)-nonphosphorylated (Homo sapiens, UniProt P00519, M351T); conditions: 10 µM i-CDK9; read-out: % Retention on Solid Support
T19 construct: purchased DiscoveRx KINOMEscan
Procedure, shortened: as §1

CDC2L1 = molecular target: T20, CDC2L1 (Homo sapiens, UniProt P21127); conditions: read-out: % Retention on Solid Support
T20 construct: purchased DiscoveRx KINOMEscan
Procedure, shortened: as §1

DCAMKL3 = molecular target: T21, DCAMKL3 (Homo sapiens, UniProt Q9C098); conditions: read-out: % Retention on Solid Support
T21 construct: purchased DiscoveRx KINOMEscan
Procedure, shortened: as §1

STK33 = molecular target: T22, STK33 (Homo sapiens, UniProt Q9BYT3); conditions: read-out: % Retention on Solid Support
T22 construct: purchased DiscoveRx KINOMEscan
Procedure, shortened: as §1

T6 sequence (P27361 whole entry): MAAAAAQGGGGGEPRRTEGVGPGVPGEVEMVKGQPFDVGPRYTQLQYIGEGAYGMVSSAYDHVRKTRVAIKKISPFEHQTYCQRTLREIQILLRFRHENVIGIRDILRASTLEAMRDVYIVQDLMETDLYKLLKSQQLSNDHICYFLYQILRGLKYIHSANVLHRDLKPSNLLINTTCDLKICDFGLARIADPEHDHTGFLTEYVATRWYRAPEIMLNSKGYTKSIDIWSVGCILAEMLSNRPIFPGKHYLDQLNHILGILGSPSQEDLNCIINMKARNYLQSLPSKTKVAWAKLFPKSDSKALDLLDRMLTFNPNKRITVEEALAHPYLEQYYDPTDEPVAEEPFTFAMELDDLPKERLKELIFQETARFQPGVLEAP
T4 sequence (Q9Y6R4 whole entry): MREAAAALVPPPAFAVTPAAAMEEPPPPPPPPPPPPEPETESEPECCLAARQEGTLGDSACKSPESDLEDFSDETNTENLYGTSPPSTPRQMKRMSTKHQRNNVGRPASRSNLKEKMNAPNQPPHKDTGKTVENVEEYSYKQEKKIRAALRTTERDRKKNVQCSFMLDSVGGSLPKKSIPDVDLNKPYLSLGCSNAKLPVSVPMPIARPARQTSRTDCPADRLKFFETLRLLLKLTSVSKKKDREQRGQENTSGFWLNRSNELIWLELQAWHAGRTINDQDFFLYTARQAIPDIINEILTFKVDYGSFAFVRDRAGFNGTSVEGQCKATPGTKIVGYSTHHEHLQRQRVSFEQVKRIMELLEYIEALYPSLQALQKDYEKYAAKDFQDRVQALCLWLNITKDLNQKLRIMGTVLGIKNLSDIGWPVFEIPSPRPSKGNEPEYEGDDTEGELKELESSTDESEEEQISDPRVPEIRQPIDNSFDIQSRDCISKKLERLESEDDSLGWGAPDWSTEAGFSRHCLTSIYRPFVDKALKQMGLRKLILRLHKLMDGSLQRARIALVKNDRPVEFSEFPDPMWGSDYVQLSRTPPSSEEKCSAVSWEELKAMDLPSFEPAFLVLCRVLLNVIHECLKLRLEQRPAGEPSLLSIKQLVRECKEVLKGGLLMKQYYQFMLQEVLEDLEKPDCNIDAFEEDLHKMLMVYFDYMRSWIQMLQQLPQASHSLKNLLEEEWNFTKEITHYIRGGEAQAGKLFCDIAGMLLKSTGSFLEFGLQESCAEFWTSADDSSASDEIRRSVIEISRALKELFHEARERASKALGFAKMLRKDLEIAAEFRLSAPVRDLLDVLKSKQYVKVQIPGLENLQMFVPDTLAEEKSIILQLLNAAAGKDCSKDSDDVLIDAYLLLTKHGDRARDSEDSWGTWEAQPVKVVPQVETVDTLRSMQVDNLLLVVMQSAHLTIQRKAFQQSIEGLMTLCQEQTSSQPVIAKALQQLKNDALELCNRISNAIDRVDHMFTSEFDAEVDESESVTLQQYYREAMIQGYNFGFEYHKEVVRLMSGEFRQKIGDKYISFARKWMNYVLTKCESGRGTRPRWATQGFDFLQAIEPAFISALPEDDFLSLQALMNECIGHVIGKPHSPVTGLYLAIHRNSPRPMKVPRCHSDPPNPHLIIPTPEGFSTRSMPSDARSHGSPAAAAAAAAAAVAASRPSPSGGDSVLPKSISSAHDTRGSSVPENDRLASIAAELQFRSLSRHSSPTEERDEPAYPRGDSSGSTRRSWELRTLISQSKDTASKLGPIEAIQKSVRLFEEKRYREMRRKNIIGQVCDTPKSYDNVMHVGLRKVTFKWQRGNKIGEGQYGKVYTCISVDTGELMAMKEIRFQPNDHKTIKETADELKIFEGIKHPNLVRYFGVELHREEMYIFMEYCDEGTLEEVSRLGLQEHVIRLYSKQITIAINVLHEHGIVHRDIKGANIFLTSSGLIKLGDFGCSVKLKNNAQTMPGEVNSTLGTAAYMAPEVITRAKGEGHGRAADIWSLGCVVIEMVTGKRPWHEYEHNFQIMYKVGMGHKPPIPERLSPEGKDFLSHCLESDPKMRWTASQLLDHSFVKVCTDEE
T13 sequence (P37173 23-567): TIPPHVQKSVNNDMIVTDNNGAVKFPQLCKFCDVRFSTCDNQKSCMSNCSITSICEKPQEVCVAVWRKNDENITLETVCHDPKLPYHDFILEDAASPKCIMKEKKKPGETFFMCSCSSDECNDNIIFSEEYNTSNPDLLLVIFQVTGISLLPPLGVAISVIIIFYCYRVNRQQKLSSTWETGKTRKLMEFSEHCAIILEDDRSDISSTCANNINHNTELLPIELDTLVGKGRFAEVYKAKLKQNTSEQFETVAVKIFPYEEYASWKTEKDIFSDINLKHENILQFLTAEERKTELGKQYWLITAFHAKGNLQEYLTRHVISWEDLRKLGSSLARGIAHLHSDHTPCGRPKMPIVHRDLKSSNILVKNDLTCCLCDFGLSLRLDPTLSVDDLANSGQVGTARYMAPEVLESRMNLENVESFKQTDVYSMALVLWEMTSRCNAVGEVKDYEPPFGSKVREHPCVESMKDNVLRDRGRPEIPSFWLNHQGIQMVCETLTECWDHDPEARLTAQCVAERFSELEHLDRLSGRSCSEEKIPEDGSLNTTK
T1 sequence (Q13153 whole entry): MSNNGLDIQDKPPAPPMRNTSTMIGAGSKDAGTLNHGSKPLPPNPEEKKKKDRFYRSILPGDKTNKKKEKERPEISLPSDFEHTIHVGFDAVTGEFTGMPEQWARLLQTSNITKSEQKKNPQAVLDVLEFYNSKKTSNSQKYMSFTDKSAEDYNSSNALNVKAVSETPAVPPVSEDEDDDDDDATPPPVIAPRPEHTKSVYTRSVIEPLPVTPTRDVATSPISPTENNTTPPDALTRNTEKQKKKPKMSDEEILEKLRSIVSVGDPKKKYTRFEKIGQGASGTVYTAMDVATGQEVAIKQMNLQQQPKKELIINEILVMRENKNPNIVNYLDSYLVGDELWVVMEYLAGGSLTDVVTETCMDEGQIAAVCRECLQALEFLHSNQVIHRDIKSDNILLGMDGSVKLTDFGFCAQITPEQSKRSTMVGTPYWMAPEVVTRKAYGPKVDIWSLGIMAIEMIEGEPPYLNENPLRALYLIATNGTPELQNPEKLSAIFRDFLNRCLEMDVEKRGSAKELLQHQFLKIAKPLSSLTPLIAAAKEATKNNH
T2 sequence (P42336 whole entry H1047Y): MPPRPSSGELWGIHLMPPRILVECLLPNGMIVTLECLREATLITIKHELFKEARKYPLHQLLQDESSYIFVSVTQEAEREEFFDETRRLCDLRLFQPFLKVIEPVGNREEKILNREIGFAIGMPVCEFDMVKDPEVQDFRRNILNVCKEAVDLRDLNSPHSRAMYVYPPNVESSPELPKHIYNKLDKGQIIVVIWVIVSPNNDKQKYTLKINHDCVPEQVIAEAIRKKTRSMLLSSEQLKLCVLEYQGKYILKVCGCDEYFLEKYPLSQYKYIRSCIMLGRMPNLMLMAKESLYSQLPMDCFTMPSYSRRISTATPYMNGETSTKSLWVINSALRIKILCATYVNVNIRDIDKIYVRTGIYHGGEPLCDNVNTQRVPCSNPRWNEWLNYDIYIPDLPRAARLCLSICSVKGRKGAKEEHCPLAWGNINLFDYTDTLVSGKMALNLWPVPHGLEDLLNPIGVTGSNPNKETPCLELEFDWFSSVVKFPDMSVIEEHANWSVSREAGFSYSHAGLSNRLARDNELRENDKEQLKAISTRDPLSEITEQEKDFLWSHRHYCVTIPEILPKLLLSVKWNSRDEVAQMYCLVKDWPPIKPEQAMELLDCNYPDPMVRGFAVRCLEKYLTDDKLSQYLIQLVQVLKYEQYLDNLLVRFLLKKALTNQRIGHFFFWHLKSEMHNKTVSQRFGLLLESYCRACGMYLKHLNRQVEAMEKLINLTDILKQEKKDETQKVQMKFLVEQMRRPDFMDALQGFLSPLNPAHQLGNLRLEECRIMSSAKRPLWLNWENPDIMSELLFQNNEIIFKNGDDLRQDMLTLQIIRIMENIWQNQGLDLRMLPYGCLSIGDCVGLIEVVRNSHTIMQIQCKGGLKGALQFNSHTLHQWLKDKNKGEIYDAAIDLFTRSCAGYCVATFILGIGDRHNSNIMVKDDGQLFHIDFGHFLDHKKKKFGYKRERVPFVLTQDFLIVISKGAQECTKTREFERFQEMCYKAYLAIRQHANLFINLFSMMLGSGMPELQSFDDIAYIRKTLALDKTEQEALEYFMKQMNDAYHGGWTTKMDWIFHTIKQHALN
T21 sequence (Q9C098 whole entry): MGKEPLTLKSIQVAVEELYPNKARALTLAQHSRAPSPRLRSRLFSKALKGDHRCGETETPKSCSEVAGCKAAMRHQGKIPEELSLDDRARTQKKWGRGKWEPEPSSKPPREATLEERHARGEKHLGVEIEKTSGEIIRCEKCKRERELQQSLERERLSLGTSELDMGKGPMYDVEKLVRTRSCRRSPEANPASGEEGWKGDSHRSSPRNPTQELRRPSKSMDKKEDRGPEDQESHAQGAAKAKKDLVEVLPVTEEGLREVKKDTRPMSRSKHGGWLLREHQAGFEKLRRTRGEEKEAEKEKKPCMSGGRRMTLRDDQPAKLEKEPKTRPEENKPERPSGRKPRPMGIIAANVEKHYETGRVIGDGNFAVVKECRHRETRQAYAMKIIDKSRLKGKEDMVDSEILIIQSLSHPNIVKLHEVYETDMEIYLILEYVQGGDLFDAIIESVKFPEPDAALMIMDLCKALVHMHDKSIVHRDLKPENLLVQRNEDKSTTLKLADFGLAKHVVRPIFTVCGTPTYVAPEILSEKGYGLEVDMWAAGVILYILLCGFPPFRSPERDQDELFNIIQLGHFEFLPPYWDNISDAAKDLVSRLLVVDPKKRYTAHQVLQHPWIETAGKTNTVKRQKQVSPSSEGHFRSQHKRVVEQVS
T15 sequence (P42336 whole entry E542K): as the sequence (P42336 whole entry H1047Y) above, with E542K, Y1047H counted along it

## N[C@H]1CC[C@H](Nc2cc(-c3cccc(NCc4cccc(F)c4)n3)c(Cl)cn2)CC1 [i-CDK9, N2′-(trans-4-aminocyclohexyl)-5′-chloro-N6-(3-fluorobenzyl)-2,4′-bipyridine-2′,6-diamine]
PAK1; 1 µM i-CDK9
  remaining binding at 1 µM: 100%
PAK1; 10 µM i-CDK9
  remaining binding at 10 µM: 100%
EGFR(L747-T751del,Sins); 1 µM i-CDK9
  % Retention on Solid Support: 82%
EGFR(L747-T751del,Sins); 10 µM i-CDK9
  % Retention on Solid Support: 61%
PIK3CA(H1047Y); 1 µM i-CDK9
  remaining binding at 1 µM: 100%
PIK3CA(H1047Y); 10 µM i-CDK9
  remaining binding at 10 µM: 100%
AMPK-alpha2; 1 µM i-CDK9
  remaining binding at 1 µM: 83%
AMPK-alpha2; 10 µM i-CDK9
  remaining binding at 10 µM: 88%
MAP3K4; 1 µM i-CDK9
  remaining binding at 1 µM: 87%
MAP3K4; 10 µM i-CDK9
  remaining binding at 10 µM: 96%
DYRK1A; 1 µM i-CDK9
  remaining binding at 1 µM: 1.3%
DYRK1A; 10 µM i-CDK9
  remaining binding at 10 µM: 0%
SRPK1; 1 µM i-CDK9
  remaining binding at 1 µM: 100%
SRPK1; 10 µM i-CDK9
  remaining binding at 10 µM: 70%
IRAK4
  % Retention on Solid Support: 93%
ERK1; 1 µM i-CDK9
  remaining binding at 1 µM: 100%
ERK1; 10 µM i-CDK9
  remaining binding at 10 µM: 93%
AMPK-alpha1; 1 µM i-CDK9
  remaining binding at 1 µM: 84%
AMPK-alpha1; 10 µM i-CDK9
  remaining binding at 10 µM: 93%
TLK2; 1 µM i-CDK9
  remaining binding at 1 µM: 100%
TLK2; 10 µM i-CDK9
  remaining binding at 10 µM: 100%
VRK2
  remaining binding at 1 µM: 100%
CAMK1D; 1 µM i-CDK9
  remaining binding at 1 µM: 100%
CAMK1D; 10 µM i-CDK9
  remaining binding at 10 µM: 100%
AURKA; 1 µM i-CDK9
  remaining binding at 1 µM: 92%
AURKA; 10 µM i-CDK9
  remaining binding at 10 µM: 97%
TAK1; 1 µM i-CDK9
  remaining binding at 1 µM: 100%
TAK1; 10 µM i-CDK9
  remaining binding at 10 µM: 82%
TGFBR2; 1 µM i-CDK9
  remaining binding at 1 µM: 87%
TGFBR2; 10 µM i-CDK9
  remaining binding at 10 µM: 100%
SLK; 1 µM i-CDK9
  remaining binding at 1 µM: 100%
SLK; 10 µM i-CDK9
  remaining binding at 10 µM: 100%
PIK3CA(E542K); 1 µM i-CDK9
  remaining binding at 1 µM: 100%
PIK3CA(E542K); 10 µM i-CDK9
  remaining binding at 10 µM: 100%
YANK1
  remaining binding at 1 µM: 100%
GSK3A; 1 µM i-CDK9
  remaining binding at 1 µM: 93%
GSK3A; 10 µM i-CDK9
  remaining binding at 10 µM: 8.7%
FLT3; 1 µM i-CDK9
  remaining binding at 1 µM: 78%
FLT3; 10 µM i-CDK9
  remaining binding at 10 µM: 100%
[1]
  remaining binding at 10 µM: 100%
CDC2L1; 1 µM i-CDK9
  remaining binding at 1 µM: 92%
CDC2L1; 10 µM i-CDK9
  remaining binding at 10 µM: 36%
DCAMKL3; 1 µM i-CDK9
  remaining binding at 1 µM: 100%
DCAMKL3; 10 µM i-CDK9
  remaining binding at 10 µM: 63%
STK33; 1 µM i-CDK9
  remaining binding at 1 µM: 88%
STK33; 10 µM i-CDK9
  remaining binding at 10 µM: 100%
